Our source for the EC50 and fluorescence response, % of control values is PubChem BioAssay AID588620 (NMMLSC, 2011).

Molecules are shown by their SMILES. Where “and” joins values, the source holds several entries; their conditions need not be identical. Identical values can stand only once. Calls of active or inactive are those of the source.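 The calls were made as follows: active = fitted half-maximal concentration below 30 µM for cell fluorescence in pump-free yeast, so likely self-fluorescent; inactive = the rest.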

The subject of assay [1] is S. cerevisiae AD/pABC3 compound autofluorescence, flow cytometry. Nature of the assay: concentration-dependent intrinsic compound fluorescence, S. cerevisiae AD/pABC3, flow cytometry, Cherry Pick1 hits, artefact control for antifungal efflux pump inhibitor project, dose response (AID 588620).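 Also: red emission of unstained cells excited at 488 nm measured in PE-Texas Red channel.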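 As to fluorescence response, % of control: cell median fluorescence as percent of DMSO wells so 100% equals vehicle baseline.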 Background: In flow cytometry, cells or beads pass a laser one at a time.
Test in assay [2]: as above
The settings on record: S. cerevisiae AD/pABC3 compound autofluorescence, flow cytometry; at 33.1 µM (top of the series).

Take `Cc1ccc(/C=C2\CCC3=C2OC(N)=C(C#N)C3c2ccc(C)cc2)cc1` (stereo not given): the EC50 in assay [1] was 9.04 µM.

For `COc1ccccc1-c1nc(C(N)=O)c2[nH]c(=O)n(-c3cccc(C)c3)c2n1`, the EC50 in assay [1] is 10.9 µM.

For `Cc1ccc2nc(/C(C#N)=C/c3ccc(O)c(O)c3)[nH]c2c1`, the EC50 in assay [1] was 5.32 µM.

Regarding `O=C1/C(=C/c2ccco2)Oc2c1ccc(O)c2CN1CCCCC1`, in assay [1], the EC50 was 6.07 µM.

Take `CCOc1ccc(NC(=O)CSc2nnc(Cc3cccn3C)n2-c2ccc(F)cc2)cc1`: the 50% effective concentration (EC50) in assay [1] was 13.6 µM.

As for `Cc1nn(Cc2cccc(C(=O)NC34CC5CC(CC(C5)C3)C4)c2)c(C)c1Br`, the EC50 in assay [1] is 4.45 µM.

In the case of `C[C@@]12C(=O)Nc3cc(F)c(F)cc3C(=O)N1[C@H]1c3cc(Cl)ccc3OC[C@@H]1[C@@H]2c1ccccc1`, the EC50 in assay [1] was 12.3 µM.

For `Cc1nc2ccccc2n1CCc1nc2c3ccccc3nc(SCC(=O)NCc3ccco3)n2n1`, in assay [1], the EC50 is 12.2 µM.

For `O=[N+]([O-])c1ccc(N2N=C(c3ccco3)CC2c2ccccc2)cc1` (stereo not given), in assay [1], the 50% effective concentration (EC50) is 18.3 µM.

As to `COc1ccc(OC)c2c1C(=O)C(Cl)=C(Cl)C2=O`, the EC50 in assay [1] was 0.495 µM.

On to `C=CCn1c(=O)[nH]c2nc3cc(N=CN(C)C)c(C)cc3nc2c1=O`, for which the EC50 in assay [1] is 5.13 µM.

As to `COc1ccc2nccc(/C=C/c3ccnc4ccc(OC)cc34)c2c1`, in assay [2], the fluorescence response, % of control was 126% (inactive).

Regarding `COc1ccc(CN2C(=O)C(C)Nc3ncnc(N4CCN(c5ccccc5)CC4)c32)cc1` (stereo not given), the fluorescence response, % of control in assay [2] was 106% (inactive).

For the compound `CCC(=O)N1CCN(c2ccc(Cl)cc2NC(=O)c2ccc3c(c2)OCCO3)CC1`, the fluorescence response, % of control in assay [2] is 99.8% (inactive).

Take `COc1ccc(-c2ccc3c(c2)S(=O)(=O)c2cccc(C(=O)NC4CCCCC4)c2C3=O)cc1OC`: the fluorescence response, % of control in assay [2] is 106% (inactive).

Consider `COc1ccc(C2c3ccc4ccccc4c3Oc3ncn(CCN4CCOCC4)c(=N)c32)cc1` (stereo not given), for which the fluorescence response, % of control in assay [2] is 135% (inactive).

`Cc1ccc(S(=O)(=O)N2CCOCC2)cc1NC(=O)COC(=O)CNC(=O)c1ccccc1`: in assay [2], the fluorescence response, % of control was 102% (inactive).

`COc1ccc(-c2sc3ccccc3c2-c2ccc(OCCN3CCOCC3)cc2)cc1`: the fluorescence response, % of control in assay [2] is 111% (inactive).

As for `CC1(C)Cc2c(sc(NC(=O)COc3ccc(Cl)cc3Cl)c2C(N)=O)C(C)(C)N1`, in assay [2], the fluorescence response, % of control was 86% (inactive).

Turning to `O=C(O)c1nccnc1C(=O)N1CCN(c2ccccc2)CC1`, in assay [2], the fluorescence response, % of control was 121% (inactive).

On to `CCOc1ccccc1-c1nc(C(N)=O)c2[nH]c(=O)n(-c3ccc(F)cc3)c2n1`, for which the fluorescence response, % of control in assay [2] was 136% (inactive).

`Cc1c2ccncc2c(C)c2c1[nH]c1ccccc12`: in assay [2], the fluorescence response, % of control is 132% (inactive) and 1000% (inactive).

For the compound `O=C(/C=C/c1ccccc1[N+](=O)[O-])NCCc1ccc(F)cc1`, the fluorescence response, % of control in assay [2] was 90.8% (inactive).

`CC(C)c1ccc(C(=O)NC(=S)Nc2ccc3[nH]c(=O)[nH]c3c2)cc1`: in assay [2], the fluorescence response, % of control is 158% (inactive).

`COc1ccc(NC(=O)Nc2cccc3c2O[C@H](CN(C)C(=O)NC2CCCCC2)[C@@H](C)CN([C@H](C)CO)C3=O)cc1`: in assay [2], the fluorescence response, % of control was 80.3% (inactive).

With `O=C(NC(=S)Nc1ccc2[nH]c(=O)[nH]c2c1)c1cncc(Br)c1`, the fluorescence response, % of control in assay [2] was 102% (inactive).

Regarding `NC(=S)NNC(=O)[C@@H]1CCCC[C@@H]1C(=O)O`, in assay [2], the fluorescence response, % of control was 117% (inactive).

With `Nc1cc2c(cc1C(=O)c1cccc(Br)c1)OCCO2`, in assay [2], the fluorescence response, % of control was 92.7% (inactive).

As to `Cc1ccc(C(=O)N2CCC3(CC2)Oc2ccc(Cl)cc2C(=O)C32CC(c3ccccc3)=NO2)s1` (stereo not given), the fluorescence response, % of control in assay [2] is 105% (inactive).

As for `Cc1ccc(O)c(C(=O)c2cnc3c(c2)CN(CCC(C)C)C(=O)N3)c1`, the fluorescence response, % of control in assay [2] is 102% (inactive).

With `COc1ccc2c(c1)C(=O)N1[C@H]3c4cc(Cl)ccc4OC[C@@H]3[C@H](c3ccccc3)[C@]1(C)C(=O)N2`, the fluorescence response, % of control in assay [2] was 98.5% (inactive).

For `O=C(Cc1cccs1)N1CCN=C1SCc1ccccc1Cl`, in assay [2], the fluorescence response, % of control was 121% (inactive).

With `COc1ccc(-n2ncc3c2CC(C)(C)CC3NC(=O)c2cn[nH]c2)cc1` (stereo not given), the fluorescence response, % of control in assay [2] was 110% (inactive).

For the compound `CCc1c(C)nc2cc(-c3cc(OC)cc(OC)c3)nn2c1N1CCN(CCN2CCOCC2)CC1`, in assay [2], the fluorescence response, % of control is 130% (inactive).

As for `COCCCn1c(=S)[nH]c2ccc(N3CCOCC3)cc2c1=O`, the fluorescence response, % of control in assay [2] was 105% (inactive).

With `Cc1ccc(-c2c3c([nH]c(=S)c2C#N)CCCC3)o1`, in assay [2], the fluorescence response, % of control was 162% (inactive).

Consider `COc1cccc(-c2sc3cc(OC)c(OC)cc3c2-c2ccc(OCCN3CCCCC3)cc2)c1`, for which the fluorescence response, % of control in assay [2] was 112% (inactive).

With `CC(C)n1cc(/C=N/NC(=O)COc2cccc3cccnc23)c2ccccc21`, the fluorescence response, % of control in assay [2] is 91.7% (inactive).

For `CC(C)C(O)(C#CCN1CCCCC1)C(C)C`, in assay [2], the fluorescence response, % of control is 111% (inactive).

For `COc1ccc(S(=O)(=O)N2CCCCC2)cc1NC(=O)c1ccc(CS(C)(=O)=O)cc1`, the fluorescence response, % of control in assay [2] is 99.1% (inactive).

Consider `O=C(c1ccoc1)N1CCC2(CC1)Oc1ccc(F)cc1C(=O)C21CC(c2ccccc2)=NO1` (stereo not given), for which the fluorescence response, % of control in assay [2] was 85.1% (inactive).

Consider `O=c1[nH]c(=S)[nH]c(O)c1/C=C1/C=c2ccccc2=N1`, for which the fluorescence response, % of control in assay [2] is 114% (inactive).

Take `CCN1CCN(c2cc(SC(C)C)nc(-c3ccc(OC)cc3)n2)CC1`: the fluorescence response, % of control in assay [2] was 109% (inactive).

For `O=C(Nc1ccccc1C(=O)O)c1ccc(NC(=O)c2ccc(Br)o2)cc1`, the fluorescence response, % of control in assay [2] was 107% (inactive).

On to `COCC1CCN(C(=O)c2cc(COc3ccc(OC)c4ccccc34)on2)C1` (stereo not given), for which the fluorescence response, % of control in assay [2] was 82.6% (inactive).

With `NC1=NC[C@H](Cc2ccc(O)cc2)N1CCc1cc(C(F)(F)F)cc(C(F)(F)F)c1`, in assay [2], the fluorescence response, % of control was 83.1% (inactive).

Regarding `C#CC[N+](C)(C)CCCCCCCCCCCC`, the fluorescence response, % of control in assay [2] is 117% (inactive).

Consider `Nc1ncc2c(n1)-c1cc(Cl)ccc1SC2`, for which, in assay [2], the fluorescence response, % of control is 102% (inactive).

Take `O=c1[nH]c(C2CCN(S(=O)(=O)c3ccccc3C(F)(F)F)CC2)nc2c1nnn2Cc1cccc(F)c1`: the fluorescence response, % of control in assay [2] was 83.7% (inactive).

For the compound `COc1ccc(-c2[nH]c(-c3ccc4c(c3)OCO4)nc2-c2ccccc2)cc1`, in assay [2], the fluorescence response, % of control is 80.8% (inactive).

`O=C(O)CCN1C(=O)/C(=C/c2ccc(-c3nc4ccccc4s3)o2)SC1=S`: the fluorescence response, % of control in assay [2] was 234% (inactive).

As for `COc1ccc2nc(NC(=O)c3ccoc3C)sc2c1`, in assay [2], the fluorescence response, % of control is 117% (inactive).

As to `Cc1ccc(C)c(N2CCN(C(=O)C3CCCN(c4ncnc5c4nc4n5CCCCC4)C3)CC2)c1` (stereo not given), the fluorescence response, % of control in assay [2] was 89.1% (inactive).

Turning to `COc1ccc(CNC(=O)C(=O)NCC2OCCN2S(=O)(=O)c2ccc(OC)c(OC)c2)cc1` (stereo not given), the fluorescence response, % of control in assay [2] is 99.3% (inactive).

As to `O=C1c2cc(Cl)ccc2OC2(CCNCC2)C12CC(c1ccccc1)=NO2` (stereo not given), the fluorescence response, % of control in assay [2] was 107% (inactive).

Turning to `CCOc1cc2[nH]c(=S)n(CCC(=O)NCc3ccc(OC)cc3)c(=O)c2cc1OCC`, the fluorescence response, % of control in assay [2] was 93.1% (inactive).

As to `O=C1/C(=C\c2ccc(-c3ccccc3Cl)o2)SC(=S)N1CC1CCCO1` (stereo not given), the fluorescence response, % of control in assay [2] is 150% (inactive).

With `Cc1ccc(CN2C(=O)C(CC(C)C)Nc3ncnc(N4CCN(c5ccccc5)CC4)c32)cc1` (stereo not given), the fluorescence response, % of control in assay [2] is 102% (inactive).

For `O=C(O)c1ccc(-c2ccc(/C=c3/sc4nc5ccccc5n4c3=O)o2)cc1Cl`, in assay [2], the fluorescence response, % of control was 365% (inactive).

For `O=C(O)CCN1C(=O)/C(=C\c2ccc(-c3nc4ccccc4s3)o2)SC1=S`, the fluorescence response, % of control in assay [2] is 102% (inactive).

On to `COc1cc2c(cc1NC(=O)CSc1nnc(Cc3cccs3)n1Cc1ccco1)oc1ccccc12`, for which the fluorescence response, % of control in assay [2] was 85.8% (inactive).

`O=C(Cc1c2ccccc2nc2ccccc12)c1ccccc1`: the fluorescence response, % of control in assay [2] is 98.7% (inactive).

Regarding `CC(C)(C)c1ccc(-n2ncc3c2CCCC3NC(=O)c2cnccn2)cc1` (stereo not given), in assay [2], the fluorescence response, % of control is 90.8% (inactive).

As to `Clc1ccc(C(c2ccc(Cl)cc2)n2cc[n+](CC(OCc3ccc(Cl)cc3Cl)c3ccc(Cl)cc3Cl)c2)cc1` (stereo not given), the fluorescence response, % of control in assay [2] was 112% (inactive).

In the case of `CCCOc1ccc(/C=c2\sc3nc(-c4ccco4)nn3c2=O)cc1OCC`, the fluorescence response, % of control in assay [2] was 95.1% (inactive).

For `O=C1C(Cc2cccc([N+](=O)[O-])c2)SC(=Nc2ccccc2)N1c1ccccc1` (stereo not given), the fluorescence response, % of control in assay [2] was 116% (inactive).

As for `O=C(c1ccoc1)N1CCC2(CC1)Oc1ccc(F)cc1C(=O)C21CC(c2ccc(Cl)cc2)=NO1` (stereo not given), the fluorescence response, % of control in assay [2] is 116% (inactive).

Consider `C[C@H](CO)N1C[C@H](C)[C@@H](CN(C)S(=O)(=O)c2ccccc2)Oc2c(NC(=O)Nc3ccccc3)cccc2C1=O`, for which the fluorescence response, % of control in assay [2] is 83.7% (inactive).

Take `O=C(CSc1nc2nc3c(cc2c(=O)n1-c1ccccc1)CCCC3)Nc1cccc2ccccc12`: in assay [2], the fluorescence response, % of control is 101% (inactive).

As to `CCCCn1c(N)c(N(CC(C)C)C(=O)CN2C(=O)NC3(CC(C)CC(C)(C)C3)C2=O)c(=O)[nH]c1=O` (stereo not given), the fluorescence response, % of control in assay [2] is 95.1% (inactive).

For `CSCCC(NC(=O)c1ccccc1Cl)C(=O)N1CCN(C(c2ccccc2)c2ccccc2)CC1` (stereo not given), in assay [2], the fluorescence response, % of control is 80.9% (inactive).

For `COc1ccc(C(=O)NC2CCCc3c2cnn3-c2ccccc2F)o1` (stereo not given), the fluorescence response, % of control in assay [2] was 86.3% (inactive).

Consider `Cc1ccsc1-c1nc(C(N)=O)c2[nH]c(=O)n(-c3ccc(Cl)cc3)c2n1`, for which the fluorescence response, % of control in assay [2] was 102% (inactive).

`COc1ccc(-c2nc(C(N)=O)c3[nH]c(=O)n(-c4ccccc4OC)c3n2)c(OC)c1`: in assay [2], the fluorescence response, % of control was 74% (inactive).

Consider `O=C1Nc2ccccc2/C1=C/c1cnc(-c2ccccc2)[nH]1`, for which the fluorescence response, % of control in assay [2] is 128% (inactive).

The EC50 is the concentration that produces a half-maximal response.
